Reference: patent publication US20210355138A1, “AMINOTHIAZINIES AND THEIR USE AS BACE1 INHIBITORS” (Eli Lilly and Company, priority 2016, published 2021)
Like-named read-outs stand apart in the source and are kept apart here.

Assays:
Human BACE1(1-460):Fc = molecular target: T1, Human BACE1(1-460):Fc (Homo sapiens, UniProt P56817); assay: BACE1 FRET Assay; format: biochemical; settings: purified recombinant huBACE1:Fc, FRET substrate based on APP sequence, pH 4.6; mean ± standard deviation of the mean (0.035), n=5
T1 construct: made in house; host or cells: HEK293 (transient transfection, conditioned medium)
Method: (§1) To assess selectivity of BACE1 over BACE2, the test compound is evaluated in FRET assays using specific substrates for BACE1 and BACE2 as described below. For in vitro enzymatic and cellular assays, the test compound is prepared in DMSO to make up a 10 mM stock solution. The stock solution is serially diluted in DMSO to obtain a ten-point dilution curve with final compound concentrations ranging from 10 μM to 0.05 nM in a 96-well round-bottom plate before conducting the in vitro enzymatic and whole cell assays.
Human BACE1 (accession number: AF190725) and human BACE2 (accession number: AF 204944) are cloned from total brain cDNA by RT-PCR. The nucleotide sequences corresponding to amino acid sequences #1 to 460 are inserted into the cDNA encoding human IgG1 (Fc) polypeptide (Vassar et al., Science, 286, 735-742 (1999)). […]
Conditioned media of HEK293 cells transiently transfected with huBACE1:Fc or huBACE2:Fc cDNA are collected. […] The purity of the final product is assessed by electrophoresis in 4-20% Tris-Glycine SDS-PAGE. […]
Serial dilutions of the test compound are prepared as described above. […] The RFU of the mixture at time 0 is recorded at excitation wavelength 355 nm and emission wavelength 460 nm, after brief mixing on a plate shaker. […] The RFU at the end of incubation is recorded with the same excitation and emission settings used at time 0. […]

BACE1 = molecular target: T2, BACE1 (Homo sapiens, UniProt P56817); assay: SH-SY5YAPP695Wt Whole Cell Assay (Abeta ELISA); format: cell-based; settings: SH-SY5Y cells stably expressing human APP695Wt, 24 hours incubation, n=6
T2 construct: endogenous in cells; host or cells: SH-SY5Y (ATCC CRL2266) stably expressing human APP695Wt
Method: as §1
The routine whole cell assay for the measurement of inhibition of BACE1 activity utilizes the human neuroblastoma cell line SH-SY5Y (ATCC Accession No. CRL2266) stably expressing a human APP695Wt cDNA. Cells are routinely used up to passage number 6 and then discarded.
SH-SY5YAPP695Wt cells are plated in 96 well tissue culture plates at 5.0×10^4 cells/well in 200 μL culture media (50% MEM/EBSS and Ham's F12, 1× each sodium pyruvate, non-essential amino acids and NaHCO3 containing 10% FBS). The following day, media is removed from the cells, fresh media added then incubated at 37° C. for 24 hours in the presence/absence of test compound at the desired concentration range.
At the end of the incubation, conditioned media are analyzed for evidence of beta-secretase activity by analysis of Abeta peptides 1-40 and 1-42 by specific sandwich ELISAs. […]

T2 sequence (P56817 46-501): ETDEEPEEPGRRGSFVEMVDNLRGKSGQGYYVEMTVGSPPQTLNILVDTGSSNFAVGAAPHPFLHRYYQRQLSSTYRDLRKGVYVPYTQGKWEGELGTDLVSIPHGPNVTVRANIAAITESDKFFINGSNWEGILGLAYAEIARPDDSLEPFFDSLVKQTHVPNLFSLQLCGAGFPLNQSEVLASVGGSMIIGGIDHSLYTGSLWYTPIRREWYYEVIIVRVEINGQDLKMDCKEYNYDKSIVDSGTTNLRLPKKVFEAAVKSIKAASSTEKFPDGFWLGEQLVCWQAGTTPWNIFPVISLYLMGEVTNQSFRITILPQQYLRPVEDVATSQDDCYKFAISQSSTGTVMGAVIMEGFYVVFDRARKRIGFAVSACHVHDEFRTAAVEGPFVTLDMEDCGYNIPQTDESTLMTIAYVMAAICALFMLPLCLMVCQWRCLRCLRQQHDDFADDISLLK
T1 sequence (P56817 22-460): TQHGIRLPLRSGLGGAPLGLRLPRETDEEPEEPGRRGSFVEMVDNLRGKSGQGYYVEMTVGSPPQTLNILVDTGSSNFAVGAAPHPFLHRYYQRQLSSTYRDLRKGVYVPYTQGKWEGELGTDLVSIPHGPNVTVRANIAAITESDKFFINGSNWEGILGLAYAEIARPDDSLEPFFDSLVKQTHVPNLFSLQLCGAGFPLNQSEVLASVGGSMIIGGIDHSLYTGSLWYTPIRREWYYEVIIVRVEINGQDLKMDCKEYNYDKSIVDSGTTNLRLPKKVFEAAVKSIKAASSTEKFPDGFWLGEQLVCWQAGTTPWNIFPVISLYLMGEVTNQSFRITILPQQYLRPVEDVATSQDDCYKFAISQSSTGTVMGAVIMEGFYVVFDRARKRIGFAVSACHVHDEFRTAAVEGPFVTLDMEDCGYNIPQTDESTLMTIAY

`CC(F)(F)[C@H]1C[C@H]2CSC(N)=N[C@@]2(c2cc(NC(=O)c3ccc(C#N)cn3)ccc2F)CO1` [Example 1, N-[3-[(4aR,6R,8aS)-2-Amino-6-(1,1-difluoroethyl)-4a,5,6,8-tetrahydro-4H-pyrano[3,4-d][1,3]thiazin-8a-yl]-4-fluoro-phenyl]-5-cyano-pyridine-2-carboxamide] showed an IC50 (Human BACE1(1-460):Fc) of 0.263 nM, an IC50 (BACE1; Abeta 1-40 in conditioned media, mean ± standard deviation of the mean (0.0104), read-out: IC50 for SH-SY5YAPP695Wt A-beta (1-40) ELISA) of 0.026 nM and an IC50 (BACE1; Abeta 1-42 in conditioned media, mean ± standard deviation of the mean (0.0187), read-out: IC50 for SH-SY5YAPP695Wt A-beta (1-42) ELISA) of 0.0313 nM.
